Experimental data reported in patent US9725484B2, “Methods and compositions for the treatment of bone remodeling disorders” (THE REGENTS OF THE UNIVERSITY OF MICHIGAN, priority 2013, dated 2017).
Blank lines part the entries; values can stand above or below the molecule they belong to. Starred links: 1 amine or outer side, 2 acyl side, 3 side chain; linkers in the order of their positions; H or OH if unused. Positions of bridges follow the written chain, without caps; N, C: chain ends. Non-standard residues stand in square brackets, D forms with d. Residues, ends and D or L forms follow the SMILES beside them. No end group written: not given here. CO = O=C([*:1])[*:2]; Nlys = NCCCCNCC(=O)O

What was measured:
recombinant CRT = target: T1, recombinant CRT (Mus musculus, UniProt P14211); assay: Surface plasmon resonance (SPR) binding assay: binding to CRT and competitive inhibition of SE ligand 65-79*0401 binding; conditions: for Potency of competitive inhibition of SE ligand binding to CRT: result in words
T1 construct: made in house
T1 sequence (P14211 18-416): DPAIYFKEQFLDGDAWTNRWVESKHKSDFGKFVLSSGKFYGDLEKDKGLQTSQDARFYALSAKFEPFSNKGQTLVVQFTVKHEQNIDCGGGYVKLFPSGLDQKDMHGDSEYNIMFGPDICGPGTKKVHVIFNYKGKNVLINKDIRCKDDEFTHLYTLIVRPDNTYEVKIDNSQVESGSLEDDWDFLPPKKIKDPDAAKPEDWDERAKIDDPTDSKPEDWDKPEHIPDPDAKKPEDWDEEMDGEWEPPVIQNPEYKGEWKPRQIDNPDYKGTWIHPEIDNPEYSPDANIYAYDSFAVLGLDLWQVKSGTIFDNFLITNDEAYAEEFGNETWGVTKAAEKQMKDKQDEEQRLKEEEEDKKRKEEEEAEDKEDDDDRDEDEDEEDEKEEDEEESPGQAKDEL
Source text: Ficoll-Paque™, 4,5-Diaminofluorescein Diacetate (DAF-2 DA), 5-(and -6)-chloromethyl-2′,7′ dichlorodihydrofluorescein (CM-H2DCFDA), macrophage colony-stimulating factor (M-CSF), RANKL, denatured chicken collagen type II (CII), and complete Freund's Adjuvant (CFA) were purchased from previously listed sources. All other commercial reagents were purchased from Sigma (St Louis, Mo.). Linear peptides were synthesized and purified (>90%) as previously described (Ling et al., 2006 supra; Ling et al., 2007 Arthritis Res Ther 9: R5; Ling et al., 2007 The Journal of Immunology 179: 6359-6367; De Almeida et al., supra). Peptidomimetics were prepared by backbone cyclization (Kotake et al., 1999 J. Clin. Invest. 103: 1345-1352) of a 5mer peptide carrying the sequence DKCLA (SEQ ID NO: 1). Recombinant mouse CRT was purified as described (Ling and Holoshitz. 2007 The Journal of Immunology 179: 6359-6367).
(§1) Surface plasmon resonance (SPR) and signal transduction assays were performed as previously described (Holoshitz et al., 2012; supra; Ling et al., 2010. PLoS ONE 5: e11703; Ling et al., 2012 Arthritis Rheum.). In vitro assays for OC differentiation, using primary bone marrow cells (BMCs) isolated from femurs and tibias, or PBMCs isolated from healthy blood donors were performed as previously described (Holoshitz et al., 2012; supra).

[1] = tested on: SE-activated NO signaling; assay: Signal transduction assay: inhibition of SE-activated NO signaling; format: cell-based
Protocol: as §1

osteoclastogenesis = assay: In vitro osteoclastogenesis / OC differentiation, cells not given; format: cell-based
Protocol: as §1

[2] = tested on: SE-activated OC differentiation in human cells (PBMCs); assay: In vitro OC differentiation assay, human PBMCs; format: cell-based; conditions: FIG. 2D
Protocol: Isolation of human peripheral blood mononuclear cells (PBMCs) and culture of M1 fibroblasts were previously described (Holoshitz et al., 2012, J. Immunol.). DBA/1 mice, 6 to 10 weeks old, were purchased from the Jackson Laboratory (Bar Harbor, Me.). Mice were maintained and housed at the University of Michigan-Unit for Laboratory Animal Medicine facility, and all experiments were performed in accordance with protocols approved by University of Michigan Committee on Use and Care of Animals.
as §1

CIA [3] = assay: Collagen-induced arthritis (CIA) in DBA/1 mice; format: in vivo, mouse
Protocol: DBA/1 mice (7-10 week old) were immunization as described (Holoshitz, 2012, J. Immunol.) with chicken CII in CFA. In brief, 50 μl of an emulsion containing 100 μg of CII in 25 μl of 0.05 M acetic acid and 25 μl of CFA was injected intradermally at the base of the tail. Mice were injected once per week intraperitoneally with either 1 or 10 pg (HS4-4)c Trp at in 50 μl of PBS. Arthritis severity was determined as previously described (Holoshitz, 2012, J. Immunol.), using a visual scoring system on a 4-point scale for each paw: 0=no arthritis, 1=swelling and redness confined to digits, 2=minor swelling and redness spreading from the digits to the distal paw, and 3=major swelling and redness extending proximally from the paw.
Limbs were dissected and decalcified in 10% EDTA for 14 days at 4° C. After decalcification, the specimens were processed for paraffin embedding and serial sectioned. The histological sections were deparaffinized, rehydrated and stained with hematoxylin and eosin (H&E), or for tartrate-resistant acid phosphatase (TRAP) activity using a commercial kit (Kamiya Biomedical Company, Seattle, Wash.). To determine OC abundance, TRAP-positive multinucleated cells were counted. Data represent mean±SEM of the total number of OCs in front and rear paws+knees. Bone damage was evaluated by radiography and micro-computed tomography (micro-CT) as previously described (Holoshitz, 2012, J. Immunol.).

[4] = tested on: osteoclastogenesis in mouse bone marrow cell cultures; assay: In vitro OC differentiation assay, mouse bone marrow cell cultures; format: cell-based; conditions: FIG. 2E; for Inhibition of basal osteoclastogenesis: mouse bone marrow cell cultures; for Inhibition of SE-activated OC differentiation: mouse cells
Protocol: as §1

CIA [5] = conditions: in vivo; cited from earlier work
rodent cells = assay: Literature: in vitro inhibition in rodent cells (Fridman et al.); format: cell-based
[6] = target: T2, recombinant mouse CRT (calreticulin) (mouse, UniProt P14211 18-416, limits assumed); assay: SPR, peptide as analyte, recombinant CRT immobilized
T2 construct: also called recombinant CRT
T2 sequence (looked up): T1 sequence (P14211 18-416)

- Binding to CRT (recombinant CRT; peptide in the analyte, CRT immobilized on the biosensor chip): bound to CRT
- Potency of competitive inhibition of SE ligand binding to CRT (recombinant CRT): low-μM-range
- IC50 [1]: 35000 nM
Molecule: DKCLA [Linear DKCLA]
- Block of NO induction by the SE ligand ([1]; result in words): completely blocked

- Potency of competitive inhibition of SE ligand binding to CRT (recombinant CRT): low-pM
- IC50 [1]: 0.0016 nM
Molecule: C[C@H](NC(=O)CN1CCCCNC(=O)NCCCCN(C(=O)[C@@H](N)Cc2c[nH]c3ccccc23)CC(=O)N[C@@H](CC(=O)O)C(=O)N[C@@H](CCCCN)C(=O)N[C@@H](CS)C1=O)C(N)=O [HS(4-4)c Trp] (H-W[Nlys]DKC[Nlys]A-NH2; linker 2-6 via CO)
- Concentrations with inhibitory effect on OC differentiation (osteoclastogenesis; result in words): sub-to-low-pM
- Inhibition of SE-activated OC differentiation [2]: sub-pM
- Dose range achieving disease amelioration effects (CIA [3]; mouse, in vivo): ng/kg-range
- In vivo potency relative to INCB028050, SB1518, CEP-33779 (CIA [3]; mouse, in vivo): 1,000,000 fold
- Arthritis incidence (CIA [3]; weekly ip): lower incidence
- Arthritis severity (CIA [3]; weekly ip): significantly milder
- Bone destruction, micro-CT imaging of joints (CIA [3]; weekly ip): lesser extent of bone destruction
- OC abundance, synovial tissue histology (TRAP) (CIA [3]; weekly ip): lower OC abundance
- Arthritis onset (CIA [3]; weekly ip, low-picogram doses): delayed onset
- SEAL potency relative to the linear DKCLA peptide [1]: 1,000,000 times
- Concentrations blocking the SE signaling effects ([1]; result in words): low-pM
- Inhibition of basal osteoclastogenesis [4]: sub-pM
- Inhibition of SE-activated OC differentiation [4]: sub-pM

- IC50 [1]: 560 nM
Molecule: HS(4-6)c Trp: backbone cyclic DKCLA (cDKCLA) peptidomimetic; cyclization linker m is 4 and n is 6 (bridge (positions not given here); not fully specified (bridges); also: backbone cyclized, linker m=4, n=6, 'Trp' in name unexplained)

Molecule: CN1CCN(c2cccc(Nc3nc4c(-c5ccc(S(C)(=O)=O)cc5)cccn4n3)c2)CC1 [CEP-33779]
- Dose range with therapeutic efficacy in CIA (CIA [5]): mg/kg-range

- IC50 [1]: 0.0018 nM
Molecule: HS(3-3)c Trp: backbone cyclic DKCLA (cDKCLA) peptidomimetic; cyclization linker m is 3 and n is 3 (bridge (positions not given here); not fully specified (bridges); also: backbone cyclized, linker m=3, n=3, 'Trp' in name unexplained)
- Inhibition of SE-activated OC differentiation [2]: sub-pM
- Inhibition of basal osteoclastogenesis [4]: sub-pM
- Inhibition of SE-activated OC differentiation [4]: sub-pM

- IC50 [1]: 6.3 nM
Molecule: HS(6-4)c Trp: backbone cyclic DKCLA (cDKCLA) peptidomimetic; cyclization linker m is 6 and n is 4 (bridge (positions not given here); not fully specified (bridges); also: backbone cyclized, linker m=6, n=4, 'Trp' in name unexplained)

- IC50 [1]: 770 nM
Molecule: HS(6-2)c Trp: backbone cyclic DKCLA (cDKCLA) peptidomimetic; cyclization linker m is 6 and n is 2 (bridge (positions not given here); not fully specified (bridges); also: backbone cyclized, linker m=6, n=2, 'Trp' in name unexplained)

Molecule: CCS(=O)(=O)N1CC(CC#N)(n2cc(-c3ncnc4[nH]ccc34)cn2)C1 [INCB028050]
- Dose range with therapeutic efficacy in CIA (CIA [5]): mg/kg-range
- Potency lower than compound HS(4-4)c Trp (rodent cells): ~1000 fold

Molecule: C1=C/COCc2cc(ccc2OCCN2CCCC2)Nc2nccc(n2)-c2cccc(c2)COC/1 [SB1518]
- Dose range with therapeutic efficacy in CIA (CIA [5]): mg/kg-range

- IC50 [1]: 4300 nM
Molecule: HS(3-4)c Trp (DKCLA; bridge (positions not given here); not fully specified (bridges); also: backbone cyclized, linker m=3, n=4, 'Trp' in name unexplained)
- Inhibition of osteoclastogenesis (osteoclastogenesis; FIG. 2F): does not inhibit
- Arthritis incidence (CIA [3]; weekly ip): does not inhibit
- Arthritis severity (CIA [3]; weekly ip): does not inhibit

- binding result [6]: binds
Molecule: DKCLA (Synthetic linear 5mer; analyte in SPR) [linear DKCLA (SEQ ID NO: 1) peptide]
